“And” between values parts separate entries of the source, which are not always exact repeats. Equal entries are not always repeated. Inconclusive results and toxic doses are left out.

The assay concerns L1210 leukemia ip in BDF1 mice, survival T/C. Nature of the assay: NCI In Vivo Anticancer Drug Screen. Data for tumor model L1210 Leukemia (intraperitoneal) in B6D2F1 (BDF1) mice. The conditions noted are these: endpoint: mean survival time, higher = longer survival. Summed up: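 Mice bearing the transplanted tumor received compound or vehicle. Survival of the treated group was divided by that of the vehicle-treated control group to give the ratio.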

Setting [1] is: dose: 100.0 mg/kg/injection, schedule: Q04DX002 (ip), vehicle: Klucel (hydroxypropylcellulose) (HPC).
The mark [2] stands for this setting: dose: 100.0 mg/kg/injection, schedule: Q01DX009 (ip), vehicle: saline with Tween-80.
[3] abbreviates: dose: 100.0 mg/kg/injection, schedule: Q04DX003 (ip), vehicle: saline with Tween-80.
The mark [4] stands for this setting: dose: 200.0 mg/kg/injection, schedule: Q04DX003 (ip), vehicle: saline with Tween-80.
Where [5] appears, read: dose: 400.0 mg/kg/injection, schedule: Q04DX003 (ip), vehicle: saline with Tween-80.

`COc1ccc2c(c1)CC[C@@H]1[C@@H]2CC[C@@]2(C)[C@H]1CC[C@@]2(O)C(F)=C(F)F`: the T/C is, setting by setting: (dose: 38.0 mg/kg/injection, schedule: Q01DX015 (sc), vehicle: steriod suspending solution) 96 % of control; (dose: 50.0 mg/kg/injection, schedule: Q01DX009 (ip), vehicle: Klucel (hydroxypropylcellulose) (HPC)) 116 % of control; (dose: 75.0 mg/kg/injection, schedule: Q01DX015 (sc), vehicle: steriod suspending solution) 88 % of control; (dose: 100.0 mg/kg/injection, schedule: Q01DX001 (sc), vehicle: steriod suspending solution) 92 % of control; (dose: 100.0 mg/kg/injection, schedule: Q01DX009 (ip), vehicle: Klucel (hydroxypropylcellulose) (HPC)) 107 % of control; (dose: 150.0 mg/kg/injection, schedule: Q01DX015 (sc), vehicle: steriod suspending solution) 94 % of control. For the same compound, the T/C is 100 % of control (dose: 200.0 mg/kg/injection, schedule: Q01DX001 (sc), vehicle: steriod suspending solution); 100 % of control (dose: 200.0 mg/kg/injection, schedule: Q01DX009 (ip), vehicle: Klucel (hydroxypropylcellulose) (HPC)); 104 % of control (dose: 300.0 mg/kg/injection, schedule: Q01DX009 (ip), vehicle: Klucel (hydroxypropylcellulose) (HPC)); 94 % of control (dose: 300.0 mg/kg/injection, schedule: Q01DX015 (sc), vehicle: steriod suspending solution); 97 % of control (dose: 400.0 mg/kg/injection, schedule: Q01DX001 (sc), vehicle: steriod suspending solution); 94 % of control (dose: 600.0 mg/kg/injection, schedule: Q01DX015 (sc), vehicle: steriod suspending solution).

`CC(=O)NC(N)=S`: the T/C runs as follows: (dose: 25.0 mg/kg/injection, schedule: Q04DX002 (ip), vehicle: Klucel (hydroxypropylcellulose) (HPC)) 108 % of control; (dose: 50.0 mg/kg/injection, schedule: Q04DX002 (ip), vehicle: Klucel (hydroxypropylcellulose) (HPC)) 108 % of control; (dose: 50.0 mg/kg/injection, schedule: Q04DX003 (ip), vehicle: Klucel (hydroxypropylcellulose) (HPC)) 97 % of control; under setting [1], 108 % of control; (dose: 100.0 mg/kg/injection, schedule: Q04DX003 (ip), vehicle: Klucel (hydroxypropylcellulose) (HPC)) 103 % of control.

`COc1ccc(C(O)SP(=S)(OC)c2ccc(OC)cc2)cc1` (configuration not stated): the T/C (dose: 50.0 mg/kg/injection, schedule: Q01DX009 (ip), vehicle: saline with Tween-80) is 100 % of control; the T/C under setting [2] is 100 % of control; the T/C under setting [3] is 92 % of control; the T/C (dose: 200.0 mg/kg/injection, schedule: Q01DX009 (ip), vehicle: saline with Tween-80) is 95 % of control; the T/C under setting [4] is 88 % of control.

As to `CCCN(CCC)CP(=S)(CN(CCC)CCC)CN(CCC)CCC`, the T/C (dose: 100.0 mg/kg/injection, schedule: Q01DX001 (ip), vehicle: saline) was 92 % of control and the T/C (dose: 200.0 mg/kg/injection, schedule: Q01DX001 (ip), vehicle: saline) is 90 % of control.

On to `CCCN=Cc1cc(Cl)ccc1O.CCCN=Cc1cc(Cl)ccc1O.[Ni]`, for which the T/C (dose: 100.0 mg/kg/injection, schedule: Q01DX008 (sc), vehicle: olive oil, sesame oil, peanut oil) is 104 % of control; the T/C (dose: 200.0 mg/kg/injection, schedule: Q01DX008 (sc), vehicle: olive oil, sesame oil, peanut oil) was 98 % of control; the T/C (dose: 400.0 mg/kg/injection, schedule: Q01DX008 (sc), vehicle: olive oil, sesame oil, peanut oil) was 86 % of control.

Regarding `C[N+]1(CCCl)CC[N+](C)(CCCl)CC1` (configuration not stated), the T/C runs as follows: (dose: 100.0 mg/kg/injection, schedule: Q01DX001 (ip), vehicle: carboxymethylcellulose (CMC)) 101 % of control; (dose: 100.0 mg/kg/injection, schedule: Q01DX009 (ip), vehicle: carboxymethylcellulose (CMC)) 97 % of control and 92 % of control; (dose: 100.0 mg/kg/injection, schedule: Q01DX009 (ip), vehicle: saline) 97 % of control; (dose: 100.0 mg/kg/injection, schedule: Q04DX002 (ip), vehicle: carboxymethylcellulose (CMC)) 97 % of control; (dose: 100.0 mg/kg/injection, schedule: Q04DX002 (ip), vehicle: saline) 112 % of control; (dose: 100.0 mg/kg/injection, schedule: Q04DX003 (ip), vehicle: carboxymethylcellulose (CMC)) 97 % of control. Also, the T/C is 105 % of control (dose: 200.0 mg/kg/injection, schedule: Q01DX001 (ip), vehicle: carboxymethylcellulose (CMC)); 97 % of control and 100 % of control (dose: 200.0 mg/kg/injection, schedule: Q01DX009 (ip), vehicle: carboxymethylcellulose (CMC)); 101 % of control (dose: 200.0 mg/kg/injection, schedule: Q01DX009 (ip), vehicle: saline); 100 % of control and 103 % of control (dose: 200.0 mg/kg/injection, schedule: Q04DX002 (ip), vehicle: carboxymethylcellulose (CMC)); 105 % of control (dose: 200.0 mg/kg/injection, schedule: Q04DX002 (ip), vehicle: saline); 100 % of control (dose: 200.0 mg/kg/injection, schedule: Q04DX003 (ip), vehicle: carboxymethylcellulose (CMC)). Besides, the T/C (dose: 400.0 mg/kg/injection, schedule: Q01DX001 (ip), vehicle: carboxymethylcellulose (CMC)) was 97 % of control; the T/C (dose: 400.0 mg/kg/injection, schedule: Q01DX009 (ip), vehicle: carboxymethylcellulose (CMC)) is 101 % of control and 91 % of control; the T/C (dose: 400.0 mg/kg/injection, schedule: Q01DX009 (ip), vehicle: saline) was 101 % of control; the T/C (dose: 400.0 mg/kg/injection, schedule: Q04DX002 (ip), vehicle: carboxymethylcellulose (CMC)) is 93 % of control; the T/C (dose: 400.0 mg/kg/injection, schedule: Q04DX003 (ip), vehicle: carboxymethylcellulose (CMC)) was 103 % of control.

With `COc1ccccc1NC1=C(NC(=O)Cc2ccccc2)C(=O)c2ccccc2C1=O`, the T/C under setting [3] is 98 % of control, the T/C under setting [4] is 96 % of control and the T/C under setting [5] was 94 % of control.

Regarding `CCCCN(CCCC)CC(O)c1cc(Cc2ccccc2)nc2c(Cl)cc(Cl)cc12` (configuration not stated), the T/C is, setting by setting: under setting [3], 89 % of control; under setting [4], 100 % of control; under setting [5], 100 % of control.

`Cc1ccc(-c2ccccc2)cc1C(=O)O`: the T/C is, setting by setting: under setting [1], 94 % of control; (dose: 200.0 mg/kg/injection, schedule: Q04DX002 (ip), vehicle: Klucel (hydroxypropylcellulose) (HPC)) 90 % of control; (dose: 400.0 mg/kg/injection, schedule: Q04DX002 (ip), vehicle: Klucel (hydroxypropylcellulose) (HPC)) 101 % of control.

Regarding `N#C/C(=C\c1c(O)ccc2ccccc12)c1ccc([N+](=O)[O-])cc1`, the T/C by setting is: (dose: 66.0 mg/kg/injection, schedule: Q01DX009 (ip), vehicle: saline with Tween-80) 89 % of control; under setting [2], 91 % of control; (dose: 150.0 mg/kg/injection, schedule: Q01DX009 (ip), vehicle: saline with Tween-80) 86 % of control.

`CCCCCCCCCCCCCCCCSc1ccc(S(=O)(=O)N(C)C)cc1C(=O)O`: the T/C under setting [3] was 98 % of control, the T/C under setting [4] is 91 % of control and the T/C under setting [5] is 89 % of control.

As for `Cc1cc2cc3n(c2nn1)N=C(Cl)CC3`, the T/C reads like this: (dose: 80.0 mg/kg/injection, schedule: Q04DX002 (ip), vehicle: Klucel (hydroxypropylcellulose) (HPC)) 106 % of control; (dose: 160.0 mg/kg/injection, schedule: Q04DX002 (ip), vehicle: Klucel (hydroxypropylcellulose) (HPC)) 118 % of control; (dose: 320.0 mg/kg/injection, schedule: Q04DX002 (ip), vehicle: Klucel (hydroxypropylcellulose) (HPC)) 168 % of control.

Source of the values: PubChem BioAssay AID248 (DTP/NCI, 2004).
